In ChEMBL document CHEMBL2406902, “Potent and Orally Bioavailable GPR142 Agonists as Novel Insulin Secretagogues for the Treatment of Type 2 Diabetes” (ACS Med Chem Lett, 2013):
The source made the active and inactive calls. The calls are words filed in the database; no cut-off is given here.

Key:
[1] = Metabolic stability in mouse liver microsomes assessed as compound remaining at 1 uM after 15 mins by LC/MS analysis; type: ADME, Microsome; settings: read-out: Stability
[2] = target: T1, Probable G-protein coupled receptor 142 (Homo sapiens, UniProt Q7Z601); assay: Agonist activity at human GPR142 transfected in HEK293 cells after 1 hr by inositol phosphate accumulation assay; type: functional, cell-based
T1 sequence (Q7Z601 whole entry): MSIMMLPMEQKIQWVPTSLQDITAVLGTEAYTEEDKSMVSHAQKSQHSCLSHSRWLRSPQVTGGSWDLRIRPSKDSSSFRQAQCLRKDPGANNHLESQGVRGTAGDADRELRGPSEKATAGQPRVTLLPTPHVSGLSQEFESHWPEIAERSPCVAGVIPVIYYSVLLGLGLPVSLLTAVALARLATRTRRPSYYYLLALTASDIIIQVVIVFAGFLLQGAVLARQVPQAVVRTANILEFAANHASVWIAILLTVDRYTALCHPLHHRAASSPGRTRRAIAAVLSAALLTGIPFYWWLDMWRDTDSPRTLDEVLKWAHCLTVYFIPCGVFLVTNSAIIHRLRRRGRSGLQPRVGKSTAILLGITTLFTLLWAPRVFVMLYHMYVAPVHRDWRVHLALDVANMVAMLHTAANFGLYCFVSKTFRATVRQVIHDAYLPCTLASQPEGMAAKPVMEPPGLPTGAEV

[3] = Metabolic stability in human liver microsomes assessed as compound remaining at 1 uM after 15 mins by LC/MS analysis; type: ADME, Microsome; settings: read-out: Stability
Mus musculus [4] = assay: Antidiabetic activity in C57BL/6J mouse assessed as decrease in blood glucose level at 10 mg/kg administered 30 mins followed by glucose challenge by OGTT; type: functional, organism-based; design: dose 10 mg/kg
Cynomolgus monkey [5] = assay: Antidiabetic activity in cynomolgus monkey having impaired glucose tolerance assessed as decrease in blood glucose level at 10 mg/kg administered 60 mins for once a week followed by glucose challenge by OGTT; type: functional, organism-based; design: dose 10 mg/kg; settings: Macaca fascicularis
Mus musculus [6] = assay: Antidiabetic activity in po dosed C57BL/6J mouse assessed as decrease in blood glucose level administered 30 mins followed by glucose challenge by OGTT; type: functional
[7] = Clearance in monkey at 0.5 mg/kg, iv; type: ADME, organism-based, Macaca mulatta; design: dose 0.5 mg/kg, route intravenous; settings: rhesus monkey, in vivo
[8] = Metabolic stability in rat liver microsomes assessed as compound remaining at 1 uM after 30 mins by LC/MS analysis; type: ADME, Microsome; settings: read-out: Stability
Cytochrome P450 3A4 = Cytochrome P450 3A4 (Homo sapiens, UniProt P08684); assay: Inhibition of CYP3A4 (unknown origin); type: ADME
Sequence of Cytochrome P450 3A4 (P08684 whole entry): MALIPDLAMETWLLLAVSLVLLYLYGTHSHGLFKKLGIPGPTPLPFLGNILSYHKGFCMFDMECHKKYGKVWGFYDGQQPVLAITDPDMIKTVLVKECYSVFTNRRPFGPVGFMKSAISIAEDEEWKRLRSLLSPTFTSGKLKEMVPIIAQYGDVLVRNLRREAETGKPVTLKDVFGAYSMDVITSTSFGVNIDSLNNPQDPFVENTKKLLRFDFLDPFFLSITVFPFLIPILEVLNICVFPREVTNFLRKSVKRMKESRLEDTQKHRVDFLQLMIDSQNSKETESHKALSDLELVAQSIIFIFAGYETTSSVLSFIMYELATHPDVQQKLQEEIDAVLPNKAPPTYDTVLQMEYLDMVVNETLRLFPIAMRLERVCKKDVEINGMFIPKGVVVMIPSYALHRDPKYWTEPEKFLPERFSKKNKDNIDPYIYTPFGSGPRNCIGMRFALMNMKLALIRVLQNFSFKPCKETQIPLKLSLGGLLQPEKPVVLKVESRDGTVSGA

Mus musculus [9] = assay: Antidiabetic activity in po bolus dosed ob/ob mouse assessed as increase in plasma insulin level after 15 to 20 mins; type: functional, organism-based
Cynomolgus monkey [10] = assay: Antidiabetic activity in cynomolgus monkey having impaired glucose tolerance assessed as decrease in blood glucose level at 10 mg/kg, po administered 60 mins for once a week followed by glucose challenge by OGTT; type: functional, organism-based; design: dose 10 mg/kg; settings: Macaca fascicularis
Cynomolgus monkey [11] = assay: Antidiabetic activity in po dosed cynomolgus monkey having impaired glucose tolerance assessed as decrease in blood glucose level administered 60 mins for once a week followed by glucose challenge by OGTT; type: functional, organism-based; settings: Macaca fascicularis
[12] = Oral bioavailability in monkey at 1 mg/kg; type: ADME, organism-based, Macaca mulatta; settings: rhesus monkey, in vivo
[13] = Permeability of the compound at pH 5 by PAMPA; type: ADME; settings: read-out: permeability
[14] = Half life in monkey at 1 mg/kg, po; type: ADME, organism-based, Macaca mulatta; design: dose 1 mg/kg, route oral; settings: rhesus monkey, in vivo
[15] = Metabolic stability in monkey liver microsomes assessed as compound remaining at 1 uM after 30 mins by LC/MS analysis; type: ADME, Macaca mulatta, Microsome; settings: rhesus monkey, read-out: Stability
[16] = Volume of distribution at steady state in monkey at 0.5 mg/kg, iv; type: ADME, organism-based, Macaca mulatta; design: dose 0.5 mg/kg, route intravenous; settings: rhesus monkey, in vivo, read-out: Vdss
[17] = Metabolic stability in human liver microsomes assessed as compound remaining at 1 uM after 30 mins by LC/MS analysis; type: ADME, Microsome; settings: read-out: Stability
[18] = Permeability of the compound at pH 7.4 by PAMPA; type: ADME; settings: read-out: permeability
[19] = Lipophilicity, log D of the compound at pH 7.4; type: physicochemical; settings: buffer
Mus musculus [20] = assay: Antidiabetic activity in sc dosed mouse assessed as improvement of glucose tolerance; type: functional, organism-based
Pancreatic islet [21] = assay: Antidiabetic activity in rat primary pancreatic islets assessed as potentiation of insulin secretion under high glucose condition at 1 to 100 uM after 60 mins; type: functional
Pancreatic islet [22] = assay: Antidiabetic activity in rat primary pancreatic islets assessed as potentiation of insulin secretion under low glucose condition at 1 to 100 uM after 60 mins; type: functional

Compound: CCCCc1c(C(=O)NCc2cncn2CC(=O)O)cnn1-c1ncc(C)c(-c2cccs2)n1
- remaining at 0.25 h, 1 µM [1]: 93%
- EC50 ([2]; read-out: EC50): 0.2 nM

Compound: CCCCc1c(C(=O)NCc2cnc(C)n2C)cnn1-c1ncc(C)c(-c2cccs2)n1
- remaining at 0.25 h, 1 µM [1]: 6%
- EC50 ([2]; read-out: EC50): 30 nM
- remaining at 0.25 h, 1 µM [3]: 20%

Compound: CCOCc1c(C(=O)NCc2ccncc2)cnn1-c1ncc(C)c(-c2cccs2)n1
- EC50 ([2]; read-out: EC50): 30 nM

Compound: CCCCCc1c(C(=O)NCc2ccncc2)cnn1-c1ncc(C)c(-c2cccs2)n1
- EC50 ([2]; read-out: EC50): 1000 nM

Compound: CCCc1c(C(=O)NCc2cn(C)cn2)cnn1-c1ncc(C)c(-c2cccs2)n1
- remaining at 0.25 h, 1 µM [1]: 4.7%
- EC50 ([2]; read-out: EC50): 15000 nM

Compound: CCCCc1c(C(=O)NCc2sc(C)nc2C)cnn1-c1ncc(C)c(-c2cccs2)n1
- remaining at 0.25 h, 1 µM [1]: 10%
- EC50 ([2]; read-out: EC50): 200 nM

Compound: N[C@@H](CC(=O)N1CCn2c(nnc2C(F)(F)F)C1)Cc1cc(F)c(F)cc1F
- Activity (Mus musculus [4]): Active
- Activity (Cynomolgus monkey [5]): Active

Compound: CCCCc1c(C(=O)NCc2c(C)ncn2C)cnn1-c1ncc(C)c(-c2cccs2)n1
- EC50 ([2]; read-out: EC50): 1 nM
- remaining at 0.25 h, 1 µM [3]: 19%

Compound: CCOCc1c(C(=O)NCc2cncn2C)cnn1-c1ncc(C)c(N2CCCCC2)n1
- Activity (Mus musculus [6]): Dose-dependent effect
- ED50 (Mus musculus [6]; 0.5 h): 3.3 mg/kg
- clearance [7]: 16.7 mL/min/kg
- remaining at 0.5 h, 1 µM [8]: 53%
- IC50 (Cytochrome P450 3A4): 1000 nM
- Activity (Mus musculus [9]): Dose-dependent effect
- Activity (Cynomolgus monkey [10]): Active
- Activity (Cynomolgus monkey [11]): Dose-dependent effect
- bioavailability [12]: 26%
- Papp [13]: 1.5 ×10⁻⁶ cm/s
- half-life [14]: 72 min
- remaining at 0.5 h, 1 µM [15]: 61%
- Vd [16]: 0.77 L/kg
- EC50 ([2]; read-out: EC50): 22 nM
- remaining at 0.5 h, 1 µM [17]: 88%
- Papp [18]: 3.5 ×10⁻⁶ cm/s

Compound: CCCCc1c(C(=O)NCc2ccc(F)cc2)cnn1-c1ncc(C)c(-c2cccs2)n1
- remaining at 0.25 h, 1 µM [1]: 2%
- EC50 ([2]; hek293): Not Active

Compound: CCCCc1c(C(=O)NC2CCCc3ncn(C)c32)cnn1-c1ncc(C)c(-c2cccs2)n1 (stereo not given)
- remaining at 0.25 h, 1 µM [1]: 5%
- EC50 ([2]; read-out: EC50): 100 nM
- remaining at 0.25 h, 1 µM [3]: 22%

Compound: CCc1c(C(=O)NCc2ccncc2)cnn1-c1ncc(C)c(-c2cccs2)n1
- EC50 ([2]; read-out: EC50): 1000 nM

Compound: CCOCc1c(C(=O)NCc2cncn2C)cnn1-c1ncc(C)c(NC2CCC2)n1
- Papp [13]: 0.2 ×10⁻⁶ cm/s
- remaining at 0.5 h, 1 µM [15]: 68%
- EC50 ([2]; read-out: EC50): 25 nM
- remaining at 0.5 h, 1 µM [17]: 87%
- Papp [18]: 1.6 ×10⁻⁶ cm/s

Compound: CCOCc1c(C(=O)NCc2cncn2C)cnn1-c1ncc(C)c(OCC)n1
- remaining at 0.5 h, 1 µM [8]: 77%
- Papp [13]: 1.2 ×10⁻⁶ cm/s
- remaining at 0.5 h, 1 µM [15]: 66%
- EC50 ([2]; read-out: EC50): 96 nM
- remaining at 0.5 h, 1 µM [17]: 77%
- Papp [18]: 2.9 ×10⁻⁶ cm/s

Compound: CCC(C)c1c(C(=O)NCc2ccncc2)cnn1-c1ncc(C)c(-c2cccs2)n1 (stereo not given)
- EC50 ([2]; read-out: EC50): 1200 nM

Compound: CCCCc1c(C(=O)NCc2cncn2C)cnn1-c1ncc(C)c(-c2cccs2)n1
- remaining at 0.5 h, 1 µM [8]: 54%
- remaining at 0.25 h, 1 µM [1]: 56%
- Papp [13]: 3.6 ×10⁻⁶ cm/s
- remaining at 0.5 h, 1 µM [15]: 40%
- EC50 ([2]; read-out: EC50): 1 nM
- remaining at 0.5 h, 1 µM [17]: 74%
- Papp [18]: 8 ×10⁻⁶ cm/s
- remaining at 0.25 h, 1 µM [3]: 70%

Compound: CCCc1c(C(=O)NCc2ccncc2)cnn1-c1ncc(C)c(-c2cccs2)n1
- remaining at 0.25 h, 1 µM [1]: 1%
- EC50 ([2]; read-out: EC50): 250 nM

Compound: CCCCc1c(C(=O)NCc2c[nH]c3ccccc23)cnn1-c1ncc(C)c(-c2cccs2)n1
- EC50 ([2]; read-out: EC50): > 20000 nM

Compound: CCOCc1c(C(=O)NCc2cncn2C)cnn1-c1ncc(C)c(N2CCCC2)n1
- remaining at 0.5 h, 1 µM [8]: 66%
- Papp [13]: 0.8 ×10⁻⁶ cm/s
- remaining at 0.5 h, 1 µM [15]: 46%
- EC50 ([2]; read-out: EC50): 14 nM
- remaining at 0.5 h, 1 µM [17]: 69%
- Papp [18]: 3.1 ×10⁻⁶ cm/s
- logD [19]: 2

Compound: CCCCc1c(C(=O)NCc2ccncc2)cnn1-c1ncc(C)c(-c2cccs2)n1
- EC50 ([2]; read-out: EC50): 7 nM

Compound: CCOCc1c(C(=O)NCc2cncn2C)cnn1-c1ncc(C)c(-c2cccs2)n1
- Papp [13]: 2 ×10⁻⁶ cm/s
- remaining at 0.5 h, 1 µM [15]: 34%
- EC50 ([2]; read-out: EC50): 1.3 nM
- remaining at 0.5 h, 1 µM [17]: 71%
- Papp [18]: 4 ×10⁻⁶ cm/s
- logD [19]: 2.2

Compound: CCCc1c(C(=O)NCc2cc(C)no2)cnn1-c1ncc(C)c(-c2cccs2)n1
- remaining at 0.25 h, 1 µM [1]: 11%
- EC50 ([2]; read-out: EC50): > 20000 nM

Compound: CCCc1c(C(=O)N(CC)Cc2ccncc2)cnn1-c1ncc(C)c(-c2cccs2)n1
- remaining at 0.25 h, 1 µM [1]: 0%
- EC50 ([2]; read-out: EC50): 3000 nM

Compound: CCCc1c(C(=O)NC(C)(C)c2ccncc2)cnn1-c1ncc(C)c(-c2cccs2)n1
- remaining at 0.25 h, 1 µM [1]: 2%
- EC50 ([2]; read-out: EC50): 5 nM

Compound: CCCCc1c(C(=O)NCc2ccnn2C)cnn1-c1ncc(C)c(-c2cccs2)n1
- remaining at 0.25 h, 1 µM [1]: 13%
- EC50 ([2]; read-out: EC50): 90 nM

Compound: COCc1c(C(=O)NCc2ccncc2)cnn1-c1ncc(C)c(-c2cccs2)n1
- clearance [7]: 21.7 mL/min/kg
- Activity (Mus musculus [20]): Active
- Activity (Pancreatic islet [21]): Active
- remaining at 0.25 h, 1 µM [1]: 3%
- bioavailability [12]: 3.9%
- Vd [16]: 1 L/kg
- EC50 ([2]; read-out: EC50): 1500 nM
- Activity (Pancreatic islet [22]): inactive

Compound: CCOCc1c(C(=O)NCc2cncn2C)cnn1-c1ncc(C)c(N2CCC2)n1
- Papp [13]: 0.2 ×10⁻⁶ cm/s
- remaining at 0.5 h, 1 µM [15]: 78%
- EC50 ([2]; read-out: EC50): 28 nM
- remaining at 0.5 h, 1 µM [17]: 76%
- Papp [18]: 1.6 ×10⁻⁶ cm/s
